Measured values: US12503432B2, “Ionizable lipids for nucleic acid delivery” (Global Life Sciences Solutions Canada ULC, priority 2019, dated 2025)

Key:
[1] = LNP characterization: size and PDI by dynamic light scattering, mRNA encapsulation efficiency by RiboGreen assay; format: physicochemical
Method: Particle sizes and “polydispersity index” (PDI) of the lipid particle were measured by dynamic light scattering (DLS). PDI indicates the width of the particle distribution. This is a parameter calculated from a cumulative analysis of the (DLS)-measured intensity autocorrelation function assuming a single particle size mode and a single exponential fit to the autocorrelation function. […] The particles produced by mechanical micromixers such as the NanoAssemblr® Spark™ and NanoAssemblr® Benchtop (Precision NanoSystems Inc.) are substantially homogeneous in size assuming all other variables are neutral. A lower PDI indicates a more homogenous population of lipid particles. The Spark™ instrument is used in a screening setting to identify the lead compositions. Once the composition is selected, the lipid particle can be fine-tuned using the NanoAssemblr® Benchtop. Once the process parameters Flow Rate Ratio and Total Flow Rate is identified for the specific nanoparticle composition, the nanoparticle technology can be scaled up using the same process parameter values.
Lipid particles were also manufactured by a larger microfluidic mixer instrument, the NanoAssemblr® Ignite™ for testing. Briefly, 350 μL of mRNA was diluted using 100 mM sodium acetate buffer to the required concentration of 0.2 to 0.3 mg/mL. Lipid particle samples were then prepared by running both fluids, namely, nucleic acids in aqueous solvent and Lipid Mix in ethanol at a flow ratio of 3:1 and at a total flow rate of 12 ml/min in the microfluidic mixer. Following mixing in the microfluidic device, the post cartridge lipid nucleic acid particle sample was diluted into RNAse free tubes containing three to 40 volumes of phosphate buffered saline (PBS), pH 7.4. Ethanol was finally removed through dialysis in PBS, pH 7, or using Amicon™ centrifugal filters (Millipore, USA) at 3000 RPM, or using TFF systems. Once the required concentration was achieved, the lipid nucleic acid particles were filter sterilized using 0.2 μm filters in aseptic conditions. Final encapsulation efficiency was measured by the Ribogreen™ assay. Quant-iT™ RiboGreen® RNA Reagent and Kit (Invitrogen) following manufacturer directions.
Messenger RNA or plasmid nucleic acid therapeutic (NAT) as described below, was diluted using sodium acetate buffer to the required concentration. Lipid nucleic acid particle (LNAP) samples were then prepared by running both fluids using the NanoAssemblr® Spark instrument. Briefly, […] of nucleic acids in 100 mM sodium acetate buffer in a total volume of 32 μL was mixed with 16 μL of 37.5 mM lipid mix solution as required by the N/P ratios (4, 6, or 10 in illustrated examples). The microfluidically mixed lipid nucleic acid particles (LNAP) made in the instrument were immediately diluted down with 48 μL Ca++ and Mg++ free 1× PBS at pH 7.4 in the aqueous output well. These LNAP were immediately collected into microcentrifuge tubes containing 96 μL of the same buffer at pH 7.4. Encapsulation efficiency was measured by a modified Ribogreen™ assay (Quanti-iT RiboGreen™ RNA assay kit, Fisher). This information was used to establish the desired dosage.
After the lipid particles were made as described in Example 17, particle size (hydrodynamic diameter of the particles) was determined by Dynamic Light Scattering (DLS) using a ZetaSizer™ Nano ZS™ (Malvern Instruments, UK). He/Ne laser of 633 nm wavelength was used as the light source. Data were measured from the scattered intensity data conducted in backscattering detection mode (measurement angle=173). Measurements were an average of 10 runs of two cycles each per sample. Z-Average size was reported as the particle size, and is defined as the harmonic intensity averaged particle diameter. These LNP characteristics, as well as the results of the mRNA encapsulation efficiency for various Lipid Mixes are also described in the application are shown in Tables 4, 5 and 6. […]

C57BL/6 mice = test: In vivo delivery of EPO-encoded mRNA LNP via intravenous route, serum EPO ELISA; set-up: key to EPO Protein expression: IV in mice: *: The number of asterix symbols indicates protein expression levels interpreted by the inventors from quantitative data; **: The number of asterix symbols indicates protein expression levels interpreted by the inventors from quantitative data; ***: The number of asterix symbols indicates protein expression levels interpreted by the inventors from quantitative data; ****: The number of asterix symbols indicates protein expression levels interpreted by the inventors from quantitative data; *****: The number of asterix symbols indicates protein expression levels interpreted by the inventors from quantitative data; *******: The number of asterix symbols indicates protein expression levels interpreted by the inventors from quantitative data; details: qualitative grade interpreted from quantitative data
Excerpt: Lipid Nanoparticles with the composition IL/DSPC/Cholesterol/PEG-DMG2000 (LM 02—see Table 3) were used to encapsulate recombinant human erythropoietin (EPO) encoded mRNA with 5-moU modifications [TriLink CleanCapo 5-moU EPO mRNA L7201]. To create the LNP, lipid mix in ethanol was microfluidically mixed with a low PH buffered solution of 5-moU EPO mRNA mixer at an N/P ratio of 6 using a NanoAssemblr® Ignite™ microfluidic mixer. The microfluidically mixed particles were downstream processed using Amicon® ultra 15 10 kDa MWCO units (EMD Millipore) filtration technique. The RNA loaded lipid particles were then characterized for size, PDI and Encapsulation Efficiency (EE). Size and PDI were measured using dynamic light scattering techniques described above, and nucleic acid encapsulation efficiency was calculated using a Quant-iT RiboGreen RNA assay as described supra, modified to use hEPO mNA as the standard instead if the standard RNA in the kit. The hydrodynamic diameter of these mRNA-LNPs was ˜70 nm with a PDI in the range of 0.02 to 0.1 and an encapsulation efficiency of ˜97.8%.
Animals were handled according to the Institutional Animal Care and Use Committee ethics protocols. For experiments, 6-8 week old C57BL/6 mice were purchased from Envigo (South Kent, WA, USA). For in vivo activity, female C57BL/6 mice were treated intravenously with EPO mRNA LNPs at specified dosages of 0.5-3 mg/Kg. Samples of 50-75 μL of blood were collected 6 h post administration via saphenous vein, and at regular time intervals of 24 h or 48 h.
After harvest, blood was immediately prepared to produce serum samples using standard techniques, and stored at −80 degrees C. Briefly, after collection, the blood was allowed to clot at room temperature for 15-30 minutes. The clot was removed by centrifuging the tubes at 1000-2000×g for 10 min at 4 degrees Celsius. The clear golden-yellow color supernatant was carefully removed and transferred to sterile screw-capped clear polypropylene tubes on ice. The serum was then stored, if necessary, at −80° C. until analysis.
Samples were thawed, then analyzed at appropriate dilutions for EPO protein expression and for cytokine/chemokine levels. The total serum EPO levels were evaluated using Quantikine® IVD EPO ELISA kit (Bio-Techne, Minneapolis, MN, USA).
Following i.v administration of a 0.5 mg/Kg dose of recombinant human EPO-encoded mRNA LNPs containing ionizable lipid MC3, PNI 121 or PNI 123 using the LM02 composition at N/P 6, EPO expression levels at 6 h (upper, FIG. 6) and at 24 h (lower, FIG. 6) in C56BL/6 mice were examined; hEPO protein was measured using Quantikine® IVD® ELISA Human Erythropoietin Immunoassay protocol.

[2] = TNS fluorescence assay: experimental pKa of formulated lipid nanoparticles; format: physicochemical; details: experimental surface pKa of empty LNP, cationic lipid/DSPC/cholesterol/PEG-lipid (50/10/38.5/1.5)
Method: The pKa of each cationic lipid was determined in lipid nanoparticles using an assay based on fluorescence of 6-(p-Toluidino)-2-naphthalenesulfonic acid sodium salt (TNS, Sigma Aldrich), which is a fluorescent probe for the conformational state of proteins^5. Empty lipid nanoparticles comprising of cationic lipid/DSPC/cholesterol/PEG-lipid (50/10/38.5/1.5) in distilled water at a concentration of 3.125 mM total lipid are formulated using NanoAssemblr® Spark™, and were then was characterized for LNP quality on the Zetasizer™ using a 30× dilution with 1×PBS in the low volume cuvette. Lipid nanoparticles were further diluted 4× using distilled water to 0.781 mM total lipid. TNS was prepared as a 25 μM stock solution in distilled water. Then 6.4 μL of diluted LNP samples of 0.781 mM total lipid were mixed with 10 μL of diluted TNS to a final volume of 250 μL with buffer containing 10 mM HEPES, 10 mM MES, 10 mM NH4OAc and 130 mM NaCl where the pH ranged from 3 to 9 in 0.5 pH increments.
Samples were mixed thoroughly, and the fluorescence intensity was measured at room temperature in a BioTek™ Synergy™ H1 Hybrid Multi-Mode Monochromator™ Fluorescence Microplate Reader using excitation and emission wavelengths of 321 nm and 445 nm respectively. A sigmoidal best fit analysis was applied to the fluorescence data using GraphPad Prism™ software, and the pKa was measured as the pH at half-maximal fluorescence intensity.

[3] = 5-moU EPO encoded LNPs, IL:DSPC:cholesterol:DMG-PEG (50:10:38.5:1.5), N/P 6
[4] = OVA encoded LNPs, payload WT OVA, LM02, N/P 8
[5] = Table 4 LNPs, payload and lipid mix not stated

## CC/C=C\CC1C(CC(=O)OCC(COCCCCCCCC/C=C\C/C=C\CCCCC)OCCCCCCCC/C=C\C/C=C\CCCCC)CCC1OC(=O)CCN(C)C (centres unmarked) [PNI 128]
[1]; [3]
  Diameter (Z. ave, nm): 64.8 nm
  Encapsulation Efficiency (%): 97.1%
  Polydispersity Index (PDI): 0.04
[1]; [4]
  Diameter (Z. ave, nm): 74.9 nm
  Encapsulation Efficiency (%): 97.0%
  Polydispersity Index (PDI): 0.02
[1]; [5]
  Diameter (Z. ave, nm): 61.7 nm
  Encapsulation Efficiency (%): 88.2%
  Polydispersity Index (PDI): 0.09
C57BL/6 mice
  EPO Protein expression: IV in mice: ****
[2]
  pKa: 5.56

## CC/C=C\CC1C(CC(=O)OCC(COCCCCCCCC/C=C\C/C=C\CCCCC)OCCCCCCCC/C=C\C/C=C\CCCCC)CCC1OC(=O)C1CCN(C)C1 (centres unmarked) [PNI 135]
[2]
  pKa: 5.48

## CC/C=C\CC1C(CC(=O)OCC(COCCCCCCCC/C=C\C/C=C\CCCCC)OCCCCCCCC/C=C\C/C=C\CCCCC)CCC1OC(=O)Cc1cn(C)cn1 (centres unmarked) [PNI 143]
[1]; [3]
  Diameter (Z. ave, nm): 88.0 nm
  Encapsulation Efficiency (%): 98.7%
  Polydispersity Index (PDI): 0.87
[2]
  pKa: 4.31

## CCCCC/C=C\C/C=C\CCCCCCCCOCC(COC(=O)CC1CCC(OC(=O)CCCN(C)C)C1)OCCCCCCCC/C=C\C/C=C\CCCCC (centres unmarked) [PNI 148]
[2]
  pKa: 6.77

## CC/C=C\CC1C(CC(=O)OCC(COC(=O)CCCCCCC/C=C\C/C=C\CCCCC)OC(=O)CCCCCCC/C=C\C/C=C\CCCCC)CCC1OC(=O)CCCN(C)C (centres unmarked) [PNI 269]
[2]
  pKa: 6.28

## CC/C=C\CC1C(CC(=O)OCCC(CCCCCCCC/C=C\C/C=C\CCCCC)OC(=O)C(CCCCCC)CCCCCCCC)CCC1OC(=O)CCCN(C)C (centres unmarked) [PNI 510]
[2]
  pKa: 6.2

## CC/C=C\CC1C(CC(=O)OCC(COC(=O)CCCCCCCC2CC2CCCCCCCC)OC(=O)CCCCCCCC2CC2CCCCCCCC)CCC1OC(=O)CCCN(C)C (centres unmarked) [PNI 515]
[2]
  pKa: 6.27

## CC/C=C\CC1C(CC(=O)OCC(COCCCCCCCCC2CC2CCCCCCCC)OCCCCCCCCC2CC2CCCCCCCC)CCC1OC(=O)CCCN(C)C (centres unmarked) [PNI 543]
[1]; [3]
  Diameter (Z. ave, nm): 73.6 nm
  Encapsulation Efficiency (%): 98.7%
  Polydispersity Index (PDI): 0.14
C57BL/6 mice
  EPO Protein expression: IV in mice: ***
[2]
  pKa: 6.31

## CC/C=C\CC1C(CC(=O)OCC(COCCCCCCCCCCCCCC)OCCCCCCCCCCCCCC)CCC1OC(=O)CCN(C)C (centres unmarked) [PNI 547]
[2]
  pKa: 5.95

## CCCCCCCCCCCCCCOCC(COC(=O)CC1CCC(OC(=O)CCN(C)C)C1CCCCC)OCCCCCCCCCCCCCC (centres unmarked) [PNI 548]
[2]
  pKa: 5.5

## CC/C=C\CC1C(CC(=O)OCC(COC(=O)CCCCCCCC2CC2CCCCCCCC)OC(=O)CCCCCCCC2CC2CCCCCCCC)CCC1OC(=O)CCN(C)C (centres unmarked) [PNI 551]
[2]
  pKa: 5.5

## CC/C=C\CC1C(CC(=O)OCCC(CCCCCCCC/C=C\C/C=C\CCCCC)OC(=O)C(CCCCCC)CCCCCCCC)CCC1OC(=O)CCN(C)C (centres unmarked) [PNI 552]
[2]
  pKa: 5.42

## CC/C=C\CC1C(CC(=O)OCCC(CCCCCCCC)OC(=O)C(CCCCCC)CCCCCCCC)CCC1OC(=O)CCCN(C)C (centres unmarked) [PNI 562]
[2]
  pKa: 6.36

## CC/C=C\CC1C(CC(=O)OCCC(CCCCCCCC/C=C\C/C=C\CCCCC)OC(=O)C(CCCCCC)CCCCCCCC)CCC1OC(=O)C1(C)CCN(C)CC1 (centres unmarked) [PNI 563]
[2]
  pKa: 5.96

## CC/C=C\CC1C(CC(=O)OCC(COCCCCCCCC/C=C\C/C=C\CCCCC)OCCCCCCCC/C=C\C/C=C\CCCCC)CCC1OC(=O)CN1CCN(C)CC1 (centres unmarked) [PNI 567]
[2]
  pKa: 6.23
